Assay results taken from ChEMBL document CHEMBL3421583, “Withanolides with antibacterial activity from Nicandra john-tyleriana” (J Nat Prod, 2015).
The source made the active and inactive calls.

Columns and labels:
Type in all cases: functional, organism-based
[1] = tested on: Bacillus cereus; experiment: Antibacterial activity against Bacillus cereus at 2000 ppm after 24 hrs by bioautographic TLC assay
[2] = tested on: Bacillus cereus; experiment: Antibacterial activity against Bacillus cereus at 2000 ppm after 24 to 48 hrs by disk diffusion method
[3] = tested on: Bacillus cereus; experiment: Bacteriostatic activity against Bacillus cereus BAC1 at 750 ppm after 24 hrs
[4] = tested on: Bacillus cereus; experiment: Bactericidal activity against Bacillus cereus BAC1 at 1000 ppm after 24 hrs

Measured: Activity

CC1=C(CO)C(=O)O[C@@H]([C@@H](C)[C@H]2C(=O)C[C@H]3[C@@H]4C[C@H]5O[C@]56CC=CC(=O)[C@]6(C)[C@H]4CC[C@]23C)C1
active: all assays above

C[C@]12CC[C@H]3[C@@H](C[C@H]4O[C@]45CC=CC(=O)[C@]35C)[C@@H]1C[C@@H](O)[C@@H]2[C@@H]1C[C@]2(C)C[C@H]1OC(=O)[C@]2(C)O
active: [1] | [2]
